Source: article PMC9921564, “Novel Indole-Containing Hybrids Derived from Millepachine: Synthesis, Biological Evaluation and Antitumor Mechanism Study” (Molecules, 2023)

Key:
A549 cells [1] = assay: intracellular microtubule morphology by immunofluorescence; assay type: cell-based, human; conditions: A549, 10, 20 and 50 nM, 12 h
Method: (§1) Tubulin–microtubule homeostasis is crucial for cell mitosis.
(§2) Figure 2 Effect of compound 14b on tubulin. […] The experiments were performed at least three times, and representative images are shown. Scale bars are 10 μm. […] The backbone of tubulin is shown in ribbon representation (α-tubulin, yellow; β-tubulin, green). […] The data were shown as mean ± SE (standard error) of at least three independent experiments.
(§3) S Ⅳ. Biological evaluation methods
(§4) The cells grown in logarithmical phase were seeded in 96-well plates with the density of 5×10^3/well.
(§5) After 24 h, the medium containing different concentrations of tested compounds were added for another 48 h. Then, CCK-8 reagents were added to cells and continued to culture for 2 h. The optical density was recorded with a microplate reader at 570 nm (Thermo Scientific, Varioskan LUX). All the experiments were repeated independently at least three times and the IC50 values were calculated […]
(§6) S2. In vitro tubulin polymerization inhibition assay
(§7) The in vitro tubulin polymerization inhibition assay was conducted according to the manufacturer ’s instruction (cytoskeleton, cat. no. BK011P). Briefly, 5 μL of the tested compounds at the indicated

[2] = test system: HepG2 (human liver carcinoma cell line); assay: CCK-8 antiproliferative assay, HepG2; assay type: cell-based; conditions: 48 h, read-out: IC50, Mean ± SE, HepG2
tubulin = target: T1, tubulin (Sus scrofa, UniProt P02554); assay: in vitro tubulin polymerization inhibition assay; assay type: biochemical
T1 construct: purchased cytoskeleton, Inc. BK011P
T1 sequence (P02554 whole entry): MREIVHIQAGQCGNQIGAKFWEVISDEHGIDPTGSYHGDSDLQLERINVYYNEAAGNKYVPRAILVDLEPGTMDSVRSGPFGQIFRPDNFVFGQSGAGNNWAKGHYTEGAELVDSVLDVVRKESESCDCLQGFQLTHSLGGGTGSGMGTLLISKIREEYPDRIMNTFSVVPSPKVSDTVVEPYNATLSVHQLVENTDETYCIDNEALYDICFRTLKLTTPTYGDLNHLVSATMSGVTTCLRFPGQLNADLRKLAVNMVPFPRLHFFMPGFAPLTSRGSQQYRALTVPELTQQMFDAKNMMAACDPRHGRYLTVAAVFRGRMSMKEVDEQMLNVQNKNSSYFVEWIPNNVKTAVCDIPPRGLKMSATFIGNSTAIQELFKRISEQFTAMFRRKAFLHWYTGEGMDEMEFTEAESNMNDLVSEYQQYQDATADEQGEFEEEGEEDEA
T1 sequence (P02550 whole entry partner): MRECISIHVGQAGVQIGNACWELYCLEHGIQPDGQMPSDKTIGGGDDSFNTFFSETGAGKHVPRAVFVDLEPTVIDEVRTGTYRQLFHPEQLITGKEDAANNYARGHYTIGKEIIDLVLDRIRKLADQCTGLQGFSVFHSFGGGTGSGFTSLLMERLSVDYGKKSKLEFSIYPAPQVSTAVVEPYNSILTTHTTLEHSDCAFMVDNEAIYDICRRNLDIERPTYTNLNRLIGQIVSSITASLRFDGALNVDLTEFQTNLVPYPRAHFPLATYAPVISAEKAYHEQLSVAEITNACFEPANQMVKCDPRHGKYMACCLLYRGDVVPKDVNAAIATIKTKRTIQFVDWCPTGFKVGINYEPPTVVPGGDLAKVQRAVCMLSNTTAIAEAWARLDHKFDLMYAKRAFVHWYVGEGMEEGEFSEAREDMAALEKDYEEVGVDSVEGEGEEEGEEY
Method: as §1, §2, §3, §4, §5, §6, §7

A549 cells [3] = assay: intracellular ROS detection by DCFH-DA; assay type: cell-based, human; conditions: A549, 10, 20 and 50 nM, 12 h
Excerpt: (§8) The intrinsic mitochondrial pathway is one of the most well-studied mechanisms relevant to cell apoptosis. ROS accumulation and mitochondrial membrane potential (MMP) alteration play crucial roles in this pathway. In this study, a fluorescent dye including DCFH-DA and JC-1 was used to monitor the intracellular ROS and MMP, respectively.
(§9) Figure 5 ROS accumulation and MMP alteration induced by compound 14b. (A,B) The intracellular ROS detection by DCFH-DA after A549 cells treated with compound 14b at indicated concentrations for 12 h. (C,D) The detection of MMP monitored by JC-1 dye after A549 cells treated with compound 14b at the concentrations of 10, 20 and 50 nM for 12 h. […]
(§10) samples were fixed in ice-cold 70% ethanol overnight and removed with ice-cold PBS for three times. […] After the incubation, the prepared cell samples were immediately analyzed. Almost 10,000 events were detected by flow cytometry (Beckman Coulter, CytoFlex LX). The data regarding the number of cells in different phases of the cell cycle were or apoptotic cells were analyzed by […]
(§11) Caspase-3 activity was measured according to the manufacturer ’s instructions using a GreenNuc™ Caspase-3 assay kit for live cells (Beyotime, China). […] After incubation, the fluorescence intensity (excitation wavelength:
(§12) 485 nm, emission wavelength: 515 nm) was recorded using a multifunctional microplate reader (Thermo Scientific, Varioskan LUX). […]

[4] = metabolic stability in human liver microsomes; assay type: in vitro ADME
Method: Metabolic stability is one of the most important properties in drug development. In this study, commercially available human liver microsomes were used to evaluate the metabolic stability of compound 14b. After incubation with human liver microsomes at 37 °C in vitro for an indicated time in a buffer solution containing a NADPH regenerating system, the residue of 14b was monitored by HPLC. CA-4 was used as the reference compound. […] As well known, a short half-life means a low bioavailability in vivo and is required for frequent administration with a high dose, which might result in drug accumulation and may produce related toxicity.

A549 cells [5] = assay: MMP detection by JC-1; assay type: cell-based, human; conditions: A549, 10, 20 and 50 nM, 12 h
Excerpt: as §8, §9, §10, §11, §12

Compound: COc1ccc(C(=O)c2ccc3c(ccn3C)c2)c2c1C=CC(C)(C)O2 [compound 14b, (5-methoxy-2,2-dimethyl-2H-chromen-8-yl)(1-methyl-1H-indol-5-yl)methanone]
- intracellular tubulin-microtubule homeostasis (A549 cells [1]): heavily disturbed
- IC50 [2]: 74 ± 13 nM
- effect on tubulin polymerization (tubulin; 5 μM, Figure 2A,B): inhibited tubulin polymerization in a colchicine-like manner
- IC50 (tubulin; in vitro, area under the curve): 2070 ± 150 nM
- level of ROS (A549 cells [3]): significantly rose abruptly in a dose-dependent manner
- half-life [4]: 3.3 h
- metabolic stability [4]: relatively stable in the liver microsomes
- Remaining% ([4]; 37 °C, NADPH regenerating system, 180 min): 56.17%
- remaining at 0.5 h ([4]; human, liver microsomes, 37 °C, NADPH regenerating system, 30 min): 96.2%
- remaining at 1 h ([4]; human, liver microsomes, 37 °C, NADPH regenerating system, 60 min): 91.4%
- remaining at 1.5 h ([4]; human, liver microsomes, 37 °C, NADPH regenerating system, 90 min): 84.1%
- remaining at 2 h ([4]; human, liver microsomes, 37 °C, NADPH regenerating system, 120 min): 74.5%
- remaining at 2.5 h ([4]; human, liver microsomes, 37 °C, NADPH regenerating system, 150 min): 67.8%
- remaining at 3 h ([4]; human, liver microsomes, 37 °C, NADPH regenerating system, 180 min): 50.6%
- remaining at 4 h ([4]; human, liver microsomes, 37 °C, NADPH regenerating system, 240 min): 43.4%
- MMP, ratio of JC-1 aggregates to monomers (A549 cells [5]): remarkably decreased
